US8716226B2, “3,5 phenyl-substituted beta amino acid derivatives as integrin antagonists” (Saint Louis University, priority 2012, dated 2014)

Tests used:
[1] = target: T1, recombinant human integrin αvβ1 (Homo sapiens, UniProt P05556+P06756); assay: Solid phase receptor assay for αvβ1 function; conditions: purified integrin binding to fibronectin-coated plate
T1 construct: purchased R&D Systems 6579-AV
Description: Purified human fibronectin (R&D Systems, Inc) diluted to 5 μg/ml in TBS buffer (25 mM Tris 7.4, 137 mM NaCl, 2.7 mM KCl, 1 mM CaCl2, 1 mM MgCl2, 1 mM MnCl2) was added to wells (50 μl/well) of a 96-well half-well transparent microtiter plate (Costar 3690), and incubated overnight at 4° C. Wells were washed 3 times with 150 μl TBS, and 150 μl of blocking buffer (TBS with 1% bovine serum albumin) were added. The plate was incubated for 1 hr at 37° C., and then washed 3× with TBS buffer. Purified recombinant human integrin αvβ1 (R&D Systems 6579-AV) was diluted to 2.0 μg/ml in TBS/0.1% bovine serum albumin. Compounds were diluted into the integrin solution and then 50 μl was added to empty wells of the washed fibronectin-coated plate, according to a standard template, with each sample repeated in triplicate. After incubation for one hour at room temperature, the plate was washed 3× with 150 μl of TBS buffer. To each well, 50 μl of 1 μg/ml biotinylated anti-alpha v antibody (R&D Systems) in TBS/0.1% BSA was added, and the plate was covered and incubated for 1 hr at room temperature. After washing the plate 3× with 150 μl of TBS buffer, 50 μl of streptavidin-conjugated horseradish peroxidase (R&D Systems) was added to the wells, and the plate incubated for 20 min at room temperature. […] Plates were read by colorimetric detection at 650 nm wavelength using a Tecan Safire II plate reader.

[2] = target: T2, αvβ3 (Homo sapiens, UniProt P05106+P06756); assay: 293/b3 cell adhesion assay for αvβ3 function; type: cell-based; conditions: 293/b3 cells, adhesion to human vitronectin
T2 construct: expressed in transfected cells; host or cells: HEK 293 (293/b3)
Description: 293/b3 Cell Adhesion Assay for αvβ3 Function.
Purified human vitronectin (Calbiochem/EMD Biosciences) diluted to 0.25 μg/ml in TS buffer (25 mM Tris 7.4, 150 mM NaCl) was added to wells (100 μl/well) of a 96-well microtiter plate (Immulon 2HB 96-well; VWR Scientific) and incubated overnight at 4° C. The solution in each well was then replaced with 200 μl of blocking buffer (TS with 1% bovine serum albumin), and the plate incubated for 1 hr at 37° C. Compounds were diluted in test tubes to 2× the peak testing concentration in cell adhesion buffer consisting of Hanks Buffered Salts Solution (HBSS, cation-free, Sigma), 0.1% bovine serum albumin, 25 mM HEPES, and 200 μM MnCl2. […] The cells were washed with the cell adhesion buffer, counted using a hemocytometer, centrifuged and resuspended in cell adhesion buffer at 3×10^6 cells/ml. […] Remaining attached cells were detected by addition of 100 μl/well p-nitrophenylphosphate (Sigma) solution (15 mg tablet dissolved in 25 ml 50 mM NaAcetate, pH5; 0.5% Triton-X-100), incubation for 30 min at 37° C., and then addition of 50 μl/well 1N NaOH to stop the enzyme reaction. Plates were read by colorimetric detection at 405 nm wavelength using a Tecan Safire II plate reader. Concentration-response curves were constructed by non-linear regression (best fit) analysis, and IC50 values were calculated for each compound. […]

[3] = tested on: TGFβ activation by recombinant human integrin αvβ6; assay: Integrin-mediated TGFβ activation assay (MLEC-PAI/L luciferase reporter co-cultured with SW480-β6 cells); type: cell-based; conditions: MLEC-PAI/L reporter cells co-cultured overnight with SW480-β6 cells
Description: Integrin-Mediated TGFβ Activation Assay.
Mink lung epithelial cells stably transfected with a luciferase reporter driven by a portion of the TGFβ-responsive Plasminogen Activator Inhibitor promoter (MLEC-PAI/L) were seeded at a density of 25,000/well in a white-walled, clear-bottom 96-well culture plate (Costar 3610) in 100 μL of assay medium (phenol red-free DMEM+10% fetal bovine serum). The cells were incubated for one hour in ambient air at room temperature, then at 37° C. for three hours in 5% CO2 to allow cell attachment. The medium was aspirated from the wells and 50 μL of compound diluted to 2× in assay medium was applied to each well, followed by 50 μL of assay medium containing 25,000 SW480-β6 cells, a cell line which stably overexpresses recombinant human integrin αvβ6. […] Following overnight co-culture incubation under standard conditions, the assay medium was aspirated from the wells, and a foil seal was applied to the bottom of the plate to prevent cross-detection of luminescence between the sample wells. […] The assay plate was then read immediately on a luminometer. Data was analyzed by first subtracting the mean substrate blank value from all samples, then dividing by the mean value of the MLEC-PAI/L baseline group to yield a “relative luciferase activity” value (RLA). […]

T1 sequence (P06756 31-889 limits assumed): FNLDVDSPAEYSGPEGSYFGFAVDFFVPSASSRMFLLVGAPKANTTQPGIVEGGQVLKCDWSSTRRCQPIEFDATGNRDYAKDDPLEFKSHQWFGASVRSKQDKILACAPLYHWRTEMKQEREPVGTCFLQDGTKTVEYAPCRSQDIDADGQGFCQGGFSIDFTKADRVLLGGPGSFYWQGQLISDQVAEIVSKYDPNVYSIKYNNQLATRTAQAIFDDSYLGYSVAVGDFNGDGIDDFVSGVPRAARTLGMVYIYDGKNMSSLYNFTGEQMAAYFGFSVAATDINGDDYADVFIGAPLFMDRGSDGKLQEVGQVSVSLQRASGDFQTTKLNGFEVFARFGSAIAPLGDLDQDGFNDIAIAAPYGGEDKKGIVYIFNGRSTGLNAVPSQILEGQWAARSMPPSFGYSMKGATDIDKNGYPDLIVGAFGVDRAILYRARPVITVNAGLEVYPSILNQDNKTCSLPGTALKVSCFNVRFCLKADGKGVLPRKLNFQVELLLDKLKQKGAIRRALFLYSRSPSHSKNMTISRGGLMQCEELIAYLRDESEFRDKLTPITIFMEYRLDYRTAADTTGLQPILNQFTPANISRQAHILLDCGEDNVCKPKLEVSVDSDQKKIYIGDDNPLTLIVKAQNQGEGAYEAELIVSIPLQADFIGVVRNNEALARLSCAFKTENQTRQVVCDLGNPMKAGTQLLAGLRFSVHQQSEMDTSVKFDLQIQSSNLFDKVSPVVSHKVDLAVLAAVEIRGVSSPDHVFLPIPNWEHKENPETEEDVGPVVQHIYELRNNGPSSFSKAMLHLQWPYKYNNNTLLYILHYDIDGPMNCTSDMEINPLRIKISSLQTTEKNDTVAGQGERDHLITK
T1 sequence (P06756 891-992 partner limits assumed): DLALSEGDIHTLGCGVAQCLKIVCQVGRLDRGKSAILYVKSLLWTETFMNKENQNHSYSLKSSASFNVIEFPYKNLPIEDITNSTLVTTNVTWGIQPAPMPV
T1 sequence (P05556 21-728 limits assumed): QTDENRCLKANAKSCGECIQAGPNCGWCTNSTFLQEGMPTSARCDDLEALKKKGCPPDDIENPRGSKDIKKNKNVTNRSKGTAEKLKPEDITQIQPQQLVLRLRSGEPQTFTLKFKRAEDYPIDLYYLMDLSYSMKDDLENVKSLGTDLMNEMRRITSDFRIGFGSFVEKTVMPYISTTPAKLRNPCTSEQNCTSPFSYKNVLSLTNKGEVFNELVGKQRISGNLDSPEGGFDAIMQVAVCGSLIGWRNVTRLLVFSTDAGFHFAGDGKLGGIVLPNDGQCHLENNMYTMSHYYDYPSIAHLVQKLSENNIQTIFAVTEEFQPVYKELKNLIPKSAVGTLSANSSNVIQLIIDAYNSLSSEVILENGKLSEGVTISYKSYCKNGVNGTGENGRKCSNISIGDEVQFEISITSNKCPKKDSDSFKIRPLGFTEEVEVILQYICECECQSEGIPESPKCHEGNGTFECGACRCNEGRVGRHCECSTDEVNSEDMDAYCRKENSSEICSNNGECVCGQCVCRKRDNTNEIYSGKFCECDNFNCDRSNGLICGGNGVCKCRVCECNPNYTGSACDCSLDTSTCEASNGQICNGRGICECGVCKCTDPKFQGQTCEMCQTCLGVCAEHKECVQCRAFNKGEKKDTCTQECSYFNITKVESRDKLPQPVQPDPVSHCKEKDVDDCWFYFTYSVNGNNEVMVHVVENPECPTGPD
T2 sequence (P06756 31-889 limits assumed): as the sequence (P06756 31-889 limits assumed) above
T2 sequence (P06756 891-1048 partner limits assumed): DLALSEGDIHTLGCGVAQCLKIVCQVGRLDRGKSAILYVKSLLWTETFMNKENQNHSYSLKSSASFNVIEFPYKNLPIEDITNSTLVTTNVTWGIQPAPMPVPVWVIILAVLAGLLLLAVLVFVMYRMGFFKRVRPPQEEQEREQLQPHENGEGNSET
T2 sequence (P05106 27-788): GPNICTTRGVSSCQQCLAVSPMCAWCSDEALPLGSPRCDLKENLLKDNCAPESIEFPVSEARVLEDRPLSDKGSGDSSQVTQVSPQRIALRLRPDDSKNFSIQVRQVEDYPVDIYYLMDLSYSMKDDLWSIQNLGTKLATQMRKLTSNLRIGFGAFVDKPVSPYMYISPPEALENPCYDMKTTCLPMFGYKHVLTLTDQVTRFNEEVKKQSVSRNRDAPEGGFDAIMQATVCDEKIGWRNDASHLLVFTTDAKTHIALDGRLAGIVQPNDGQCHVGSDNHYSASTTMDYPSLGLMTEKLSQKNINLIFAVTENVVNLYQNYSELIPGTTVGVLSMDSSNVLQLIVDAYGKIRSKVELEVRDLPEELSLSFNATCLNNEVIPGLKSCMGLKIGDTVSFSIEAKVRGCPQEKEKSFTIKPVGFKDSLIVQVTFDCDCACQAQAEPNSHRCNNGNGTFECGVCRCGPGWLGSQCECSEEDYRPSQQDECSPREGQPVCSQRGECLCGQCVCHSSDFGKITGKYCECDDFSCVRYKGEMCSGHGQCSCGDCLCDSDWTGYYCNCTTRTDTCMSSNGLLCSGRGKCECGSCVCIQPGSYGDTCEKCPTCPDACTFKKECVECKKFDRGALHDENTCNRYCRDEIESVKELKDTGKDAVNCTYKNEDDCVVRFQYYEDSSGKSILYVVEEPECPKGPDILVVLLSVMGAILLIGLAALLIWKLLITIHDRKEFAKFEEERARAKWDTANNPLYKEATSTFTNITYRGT

CC(C)(C)c1cc(Br)cc([C@H](CC(=O)O)NC(=O)CNC(=O)c2cc(O)cc(NC3=NCC(O)CN3)c2)c1 (stereo partly drawn) [Example 1, (3S)—N-[3-hydroxy-5-[(1,4,5,6-tetrahydro-5-hydroxy-2-pyrimidinyl)amino]benzoyl]glycyl-3-(3-bromo-5-tert-butylphenyl)-β-alanine]
IC50 [1]: 2.5 nM | IC50 [2]: 0.8 nM | IC50 [3]: 564 nM
